Measured values as given in ChEMBL document CHEMBL1201862, “PubChem BioAssay data set” (2004).
Where a name gives a salt, the structure may show the parent alone. Values belong to the compound of their own block, whether it stands above or below them. The source made the active and inactive calls.

How the values were obtained:
[1] = inhibitors of control Renilla luciferase reporter, dose response, counter-screen for Shn3 3'UTR targeting project, Clone20-Shn3RL cells, dual-Glo, cherry-pick, set 2 (AID 720724); format: functional, cell-based; settings: Dual-Go Shn3RL
[2] = HepG2 cell cytotoxicity, dose response, cytotoxicity control for Shn3 inhibitor project, CellTiter-Glo, cherry-picked (AID 624134); format: functional, cell-based
[3] = Shn3 3'UTR reporter inhibitors, dose response, cell-based, Clone20 osteoblasts, firefly luciferase, cherry-picked (AID 624132); format: functional;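 also: firefly luciferase luminescence from reporter carrying the Shn3 3'UTR in osteoblasts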
Protein Wnt-3a [4] = molecular target: T1, Protein Wnt-3a (Mus musculus, UniProt P27467); test: Wnt3a-driven reporter signaling inhibition, dose response, selectivity assay for Gli-SUFU antagonist project, Wnt-LIGHT cells, luminescence (AID 651570); format: functional; settings: read-out: IC50_Mean;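 also: Wnt-LIGHT reporter cells stimulated with conditioned medium from Wnt3a-producing cells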
[5] = control 3'UTR Renilla luciferase suppression, dose response, counter-screen for Shn3 inhibitor project, cell-based, Clone20-Shn3RL, cherry-picked (AID 624133); format: functional
[6] = reduction of Shn3 3'UTR firefly luciferase signal, dose response, Schnurri-3 inhibitor project, cell-based, Clone20 osteoblasts, cherry-pick, set 2 (AID 720490); format: functional;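 also: actives lower the luminescence signal as inhibitors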
[7] = human group III sPLA2 inhibitors, dose response, biochemical, QFRET, IC50 (AID 743457);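 also: green fluorescence rise as the enzyme cleaves BODIPY PC-A2 in liposomes; potency for inhibition of the enzyme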
[8] = HepG2 cell cytotoxicity, dose response, cytotoxicity control, ATP luminescence, cherry-pick, activator set 2 (AID 1053143); format: functional, cell-based
[9] = THP-1 cell cytotoxicity, dose response, cytotoxicity control for Vif-APOBEC3G degradation inhibitor project, THP-1 cells (AID 1117359); format: functional; settings: Human immunodeficiency virus 1, THP-1
[10] = Late stage assay provider results from the probe development effort to identify inhibitors of the Plasmodium falciparum M18 Aspartyl Aminopeptidase (M18AAP): radiolabel-based cell-based dose response assay to identify compounds that inhibit P. falciparum growth in RBCs, Set 2..; format: functional
[11] = miR-122 activators in hepatoma reporter cells, dose response, cell-based, Huh7 psiCHECK-miR122, Renilla luciferase, cherry-picked (AID 651956); format: functional;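 also: huh7 hepatoma cells stably carrying a psiCHECK-2 miR-122 sensor plasmid; renilla luciferase signal reporting endogenous miR-122 activity after 48 h compound exposure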
[12] = HEK293T cytotoxicity, dose response, cytotoxicity control for miR-122 modulator project, cell-based, activator set, cherry-pick (AID 720690); format: functional;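 also: HEK293T human cells scored for general mammalian cytotoxicity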
[13] = molecular target: Metabotropic glutamate receptor 5 (Rattus norvegicus, UniProt P31424); test: Identification of a glycine sulfonamide based non-MPEP site positive allosteric potentiator (PAM) of mGlu5 (calcium_assay).; format: functional
[14] = CEM21 lymphoblast cell cytotoxicity, dose response, cytotoxicity control for viral fusion inhibitor project, CellTiter-Glo luminescence, cherry-picked (AID 652042); format: functional, cell-based;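 also: potency for signal decrease meaning cytotoxicity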
[15] = ZM109 Env clade C HIV-1 fusion inhibitors, dose response, HeLa effector, CEM target cells, luciferase, cherry-pick (AID 652058); format: functional, cell-based
[16] = HIV Env cell-cell fusion inhibitors, dose response, HIV entry, plate reader, dry powder (AID 687023); format: functional, cell-based
[17] = CEM21 cell cytotoxicity, dose response, cytotoxicity control, plate reader, dry powder (AID 687026); format: functional, cell-based
[18] = inhibitors of HIV Env-driven cell fusion, dose response, cherry-pick (AID 652057); format: functional, cell-based
[19] = P. falciparum Dd2 growth inhibitors, dose response, SYBR Green, cherry-picked samples (AID 1159567); format: functional, cell-based
[20] = HepG2 cell cytotoxicity, dose response, cytotoxicity control, cherry-picked samples (AID 1159577); format: functional, cell-based
[21] = A549 cell cytotoxicity, dose response, cytotoxicity control, 24 h, CellTiter-Glo luminescence, cherry-picks (AID 1053115); format: functional, cell-based; settings: A549, 24 h
HeLa [22] = test: HeLa cell cytotoxicity, dose response, cytotoxicity control, ATP luminescence, cherry-pick samples (AID 687004); format: functional, cell-based; settings: Homo sapiens
HEK293 = test: HEK293T cell cytotoxicity, dose response, cytotoxicity control, ATP luminescence, cherry-pick samples (AID 687005); format: functional, cell-based; settings: Homo sapiens;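 also: cells exposed to compound for 48 hours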
[23] = HEK293 Cytotoxicity Assay Measured in Cell-Based System Using Plate Reader - 7071-01_Inhibitor_Dose_CherryPick_Activity_Set2.; format: functional
[24] = T. cruzi intracellular amastigote growth inhibition, dose response, imaging, CA-I/72 strain, bovine embryo skeletal muscle, dry powder (AID 651885); format: functional, cell-based
[25] = T. cruzi growth inhibition in host cells, dose response, cell-based, plate reader, dry powder, set 2 (AID 652275); format: functional
[26] = molecular target: Muscarinic acetylcholine receptor M5 (Homo sapiens, UniProt P08912); test: M5 receptor positive allosteric modulators, dose response, cell-based, concentration-response curve (AID 651878); format: functional
[27] = BHK-21 cell cytotoxicity, cytotoxicity control for flavivirus guanylyltransferase probe project, secondary screen (AID 624078); format: functional
[28] = HEK293T cell cytotoxicity, dose response, cytotoxicity control, luminescence plate reader, powder samples, set 4 (AID 651863); format: functional, cell-based; settings: HEK293
Protein Wnt-3a [29] = molecular target: T1, Protein Wnt-3a; test: SAR analysis of small molecule antagonists of Gli-SUFU in a Wnt3a luminescent reporter assay.; format: functional
P388/ADR = test: cells; format: functional; settings: Mus musculus
[30] = molecular target: T2, Rac GTPase-activating protein 1 (Homo sapiens, UniProt Q9H0H5); test: MgcRacGAP GTPase-activating activity inhibitors, confirmation, biochemical, ADP Hunter fluorescence, primary and confirmatory (AID 624330); format: functional
T2 sequence (Q9H0H5 whole entry): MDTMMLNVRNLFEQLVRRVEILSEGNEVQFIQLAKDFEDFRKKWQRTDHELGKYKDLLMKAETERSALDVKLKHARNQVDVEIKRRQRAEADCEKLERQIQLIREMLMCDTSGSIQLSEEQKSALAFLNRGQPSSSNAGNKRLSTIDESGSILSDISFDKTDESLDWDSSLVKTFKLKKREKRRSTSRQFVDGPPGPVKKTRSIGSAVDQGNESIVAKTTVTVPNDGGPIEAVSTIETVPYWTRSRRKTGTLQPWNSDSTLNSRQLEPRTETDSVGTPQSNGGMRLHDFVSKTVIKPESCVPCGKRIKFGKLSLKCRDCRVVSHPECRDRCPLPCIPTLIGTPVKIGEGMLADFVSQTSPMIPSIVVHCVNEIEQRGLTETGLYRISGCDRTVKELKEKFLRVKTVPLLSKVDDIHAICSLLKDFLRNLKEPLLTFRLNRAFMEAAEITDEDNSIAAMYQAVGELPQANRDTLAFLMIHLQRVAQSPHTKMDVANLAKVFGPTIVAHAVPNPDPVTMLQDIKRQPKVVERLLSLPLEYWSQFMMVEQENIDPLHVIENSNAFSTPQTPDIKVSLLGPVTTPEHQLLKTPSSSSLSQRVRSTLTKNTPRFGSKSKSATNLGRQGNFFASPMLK

HeLa [31] = test: HeLa cell cytotoxicity, dose response, cytotoxicity control, 24 h, cherry-picked samples (AID 504726); format: functional, cell-based, Homo sapiens; settings: Homo sapiens, 24 h;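 also: potency for cytotoxicity as loss of luminescence signal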
SN12K1 = test: cells; format: functional; settings: Homo sapiens
[32] = molecular target: DNA repair protein RAD52 homolog (Homo sapiens, UniProt P43351); format: functional, biochemical
P388 = test: cells; format: functional; settings: Mus musculus
[33] = HeLa cell cytotoxicity, dose response, cytotoxicity control for MgcRacGAP inhibitor project (AID 624300); format: functional
[34] = molecular target: T3, Small ubiquitin-related modifier 1 (Homo sapiens, UniProt P63165); test: inhibitors of SUMO1 partner interactions, dose response, biochemical, FRET (AID 624383); format: functional; settings: read-out: IC50_Mean
[35] = molecular target: T3, Small ubiquitin-related modifier 1; test: inhibitors of SUMO1 peptide binding, dose response, biochemical, fluorescence polarization, uHTS hits (AID 624382); format: functional; settings: read-out: IC50_Mean
cells [36] = format: functional, cell-based
cells [37] = format: functional, cell-based; remark: listed apart in the source
Cytochrome P450 3A4 = Cytochrome P450 3A4 (Homo sapiens, UniProt P08684); settings: Potency;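 also: confirmatory qHTS run detecting inhibitors and substrates of CYP3A4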
[38] = molecular target: T4, Trace amine-associated receptor 1 (Homo sapiens, UniProt Q96RJ0); test: Fluorescence-based cell-based high throughput dose response assay to identify agonists of the human trace amine associated receptor 1 (TAAR1).; format: functional
[39] = molecular target: T4, Trace amine-associated receptor 1; test: Counterscreen for agonists of the human trace amine associated receptor 1 (hTAAR1): Fluorescence-based cell-based high throughput dose response assay to identify hTAAR1 agonist that also desensitize TAAR1 receptor response.; format: functional

T4 sequence (Q96RJ0 whole entry): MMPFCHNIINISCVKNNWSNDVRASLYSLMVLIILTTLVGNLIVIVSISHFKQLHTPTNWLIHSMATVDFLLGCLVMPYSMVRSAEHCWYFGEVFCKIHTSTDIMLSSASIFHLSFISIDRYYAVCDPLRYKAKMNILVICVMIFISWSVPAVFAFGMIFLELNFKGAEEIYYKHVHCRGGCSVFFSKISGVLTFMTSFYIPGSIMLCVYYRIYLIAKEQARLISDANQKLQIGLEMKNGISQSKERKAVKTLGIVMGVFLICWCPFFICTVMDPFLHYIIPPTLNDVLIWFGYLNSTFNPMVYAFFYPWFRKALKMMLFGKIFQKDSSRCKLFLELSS
T1 sequence (P27467 whole entry): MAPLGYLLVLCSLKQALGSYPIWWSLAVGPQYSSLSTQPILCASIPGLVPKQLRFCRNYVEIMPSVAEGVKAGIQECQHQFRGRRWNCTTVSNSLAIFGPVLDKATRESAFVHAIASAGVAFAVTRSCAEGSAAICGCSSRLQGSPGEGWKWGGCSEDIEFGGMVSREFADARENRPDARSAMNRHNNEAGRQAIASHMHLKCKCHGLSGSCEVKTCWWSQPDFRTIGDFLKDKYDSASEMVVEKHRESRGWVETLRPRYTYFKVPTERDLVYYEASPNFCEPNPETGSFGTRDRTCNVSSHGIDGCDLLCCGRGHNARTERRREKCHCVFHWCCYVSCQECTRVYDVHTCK
T3 sequence (P63165 whole entry): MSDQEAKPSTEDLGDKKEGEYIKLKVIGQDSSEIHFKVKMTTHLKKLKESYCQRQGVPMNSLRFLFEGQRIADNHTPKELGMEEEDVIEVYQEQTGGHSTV
Chain of Cytochrome P450 3A4 (P08684 whole entry): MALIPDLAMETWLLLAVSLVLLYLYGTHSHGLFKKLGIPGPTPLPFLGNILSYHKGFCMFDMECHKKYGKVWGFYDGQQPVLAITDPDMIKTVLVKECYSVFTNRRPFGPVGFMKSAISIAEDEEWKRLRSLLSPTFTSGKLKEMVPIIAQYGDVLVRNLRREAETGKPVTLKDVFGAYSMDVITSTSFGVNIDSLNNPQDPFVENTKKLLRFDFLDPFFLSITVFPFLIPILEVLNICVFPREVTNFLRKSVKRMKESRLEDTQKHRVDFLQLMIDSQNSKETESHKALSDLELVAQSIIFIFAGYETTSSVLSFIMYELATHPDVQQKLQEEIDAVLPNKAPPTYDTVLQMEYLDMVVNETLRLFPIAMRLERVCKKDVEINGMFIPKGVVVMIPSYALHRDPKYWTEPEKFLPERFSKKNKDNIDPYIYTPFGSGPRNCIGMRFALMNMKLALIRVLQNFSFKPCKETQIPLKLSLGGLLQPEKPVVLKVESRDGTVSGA
Chain of Metabotropic glutamate receptor 5 (P31424 whole entry, the tested form may be a part): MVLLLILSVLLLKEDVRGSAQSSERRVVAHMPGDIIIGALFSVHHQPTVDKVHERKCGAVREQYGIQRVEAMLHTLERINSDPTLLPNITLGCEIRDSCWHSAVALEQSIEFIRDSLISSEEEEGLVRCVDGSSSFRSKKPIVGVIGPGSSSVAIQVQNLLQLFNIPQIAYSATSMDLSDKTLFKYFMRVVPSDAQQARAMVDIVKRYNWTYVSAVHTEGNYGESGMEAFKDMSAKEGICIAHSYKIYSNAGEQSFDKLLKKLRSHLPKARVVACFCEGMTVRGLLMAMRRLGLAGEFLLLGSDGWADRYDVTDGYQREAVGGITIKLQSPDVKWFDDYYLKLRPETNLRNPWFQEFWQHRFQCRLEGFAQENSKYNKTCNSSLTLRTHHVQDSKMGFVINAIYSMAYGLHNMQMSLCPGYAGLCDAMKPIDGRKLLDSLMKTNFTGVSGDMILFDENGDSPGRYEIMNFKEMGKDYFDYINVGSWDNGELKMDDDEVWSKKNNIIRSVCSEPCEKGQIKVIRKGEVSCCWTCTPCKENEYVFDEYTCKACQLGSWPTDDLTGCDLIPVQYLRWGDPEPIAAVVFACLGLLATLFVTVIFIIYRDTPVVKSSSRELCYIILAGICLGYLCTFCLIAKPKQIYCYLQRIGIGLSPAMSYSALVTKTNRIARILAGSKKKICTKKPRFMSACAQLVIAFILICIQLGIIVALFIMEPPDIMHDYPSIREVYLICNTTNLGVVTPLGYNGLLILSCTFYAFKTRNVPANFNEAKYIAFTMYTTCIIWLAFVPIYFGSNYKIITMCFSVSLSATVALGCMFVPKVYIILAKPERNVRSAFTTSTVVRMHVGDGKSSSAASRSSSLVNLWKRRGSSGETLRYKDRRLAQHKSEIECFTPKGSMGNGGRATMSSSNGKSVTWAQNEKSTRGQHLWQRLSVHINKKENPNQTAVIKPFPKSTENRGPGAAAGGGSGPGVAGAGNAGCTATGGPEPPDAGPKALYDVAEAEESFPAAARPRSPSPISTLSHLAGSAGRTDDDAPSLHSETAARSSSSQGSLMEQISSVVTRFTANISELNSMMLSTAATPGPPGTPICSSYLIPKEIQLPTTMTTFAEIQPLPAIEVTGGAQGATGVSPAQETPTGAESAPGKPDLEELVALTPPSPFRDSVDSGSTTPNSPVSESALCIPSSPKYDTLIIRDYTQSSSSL
Chain of Muscarinic acetylcholine receptor M5 (P08912 whole entry): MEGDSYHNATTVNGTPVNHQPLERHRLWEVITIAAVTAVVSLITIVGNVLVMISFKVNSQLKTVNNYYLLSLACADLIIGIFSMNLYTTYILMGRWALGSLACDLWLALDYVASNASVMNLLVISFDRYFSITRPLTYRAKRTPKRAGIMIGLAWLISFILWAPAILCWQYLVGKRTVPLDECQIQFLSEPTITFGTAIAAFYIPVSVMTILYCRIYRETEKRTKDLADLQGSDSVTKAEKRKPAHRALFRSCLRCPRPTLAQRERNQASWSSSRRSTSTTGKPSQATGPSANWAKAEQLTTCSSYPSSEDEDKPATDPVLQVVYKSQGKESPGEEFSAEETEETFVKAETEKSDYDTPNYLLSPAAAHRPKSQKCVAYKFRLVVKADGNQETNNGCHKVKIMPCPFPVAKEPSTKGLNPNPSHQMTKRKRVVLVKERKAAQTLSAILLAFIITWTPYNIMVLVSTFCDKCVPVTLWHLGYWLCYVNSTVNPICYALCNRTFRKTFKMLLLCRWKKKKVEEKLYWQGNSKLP
Chain of DNA repair protein RAD52 homolog (P43351 whole entry): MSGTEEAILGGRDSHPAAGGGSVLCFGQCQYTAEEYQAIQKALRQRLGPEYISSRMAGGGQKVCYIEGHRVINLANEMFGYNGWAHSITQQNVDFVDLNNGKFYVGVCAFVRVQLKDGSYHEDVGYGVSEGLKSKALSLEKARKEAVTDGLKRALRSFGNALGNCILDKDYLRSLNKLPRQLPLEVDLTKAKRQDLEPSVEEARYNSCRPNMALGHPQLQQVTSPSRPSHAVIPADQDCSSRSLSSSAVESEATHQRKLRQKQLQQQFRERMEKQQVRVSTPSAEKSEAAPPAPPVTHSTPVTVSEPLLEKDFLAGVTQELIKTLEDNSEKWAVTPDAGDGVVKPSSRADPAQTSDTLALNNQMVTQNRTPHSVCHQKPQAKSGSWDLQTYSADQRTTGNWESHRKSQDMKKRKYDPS

Structure (SMILES): O=C(Cn1cnc2ccccc21)Nc1cccc(S(=O)(=O)N2CCCC2)c1
AC50 [1]: 1.79 µM (active)
AC50 [2]: 50.5 µM (active)
AC50 [3]: 2.77 µM (active)
IC50 (Protein Wnt-3a [4]): 13.1 µM (active)
AC50 [5]: 10.1 µM (active)
AC50 [6]: 2.61 µM (active)

IC50 [7]: > 122 µM (inactive)
Structure (SMILES): O=C(NNC(=S)Nc1ccc(Br)cc1Cl)c1ccco1

Structure (SMILES): O=C(NCC1CC1)c1ccc2c3n(nc2c1)-c1ccccc1CO3
AC50 [8]: 26 µM (active)
CC50 [9]: > 40 µM (active)

Structure (SMILES): COc1ccc(CCNc2c3ccccc3nc3ccccc23)cc1OC
IC50 [10]: 2.4 µM (active)

Structure (SMILES): COc1ccc(C#Cc2ccc([C@H]3[C@H](CO)N4CCCCN(C(=O)Nc5ccccc5)C[C@@H]34)cc2)cc1
AC50 [11]: 6 µM (active)
AC50 [12]: 10 µM (active)

EC50 [13]: 0.298 µM
Structure (SMILES): CS(=O)(=O)N(CC(=O)NCC1CC1)c1cc(C(F)(F)F)ccc1Cl

Structure (SMILES): COc1cccc(S(=O)(=O)Nc2ccc3c(c2)[C@H]2C[C@H](CC(=O)NCc4ccc(Cl)cc4)O[C@@H](CO)[C@H]2O3)c1
AC50 [14]: 67 µM (active)
AC50 [15]: 1.29 µM (active)
AC50 [16]: 19.4 µM (active)
AC50 [17]: > 70 µM (inactive)
AC50 [18]: 9.17 µM (active)

Structure (SMILES): COc1ccccc1CN1CC[C@H]2[C@H](CO)Nc3ccc(C#Cc4ccccc4)cc3[C@H]21
AC50 [19]: 1.45 µM (active)
AC50 [20]: 11.4 µM (active)
AC50 [21]: > 60 µM (inactive)
AC50 (HeLa [22]): 10.2 µM (active)

Structure (SMILES): COc1ccc(C#Cc2ccc3c(c2)O[C@@H](CN(C)C(C)=O)[C@@H](C)CN([C@H](C)CO)S3(=O)=O)cc1
AC50 (HEK293): 17.8 µM (active)
AC50 [23]: 17.8 µM (active)
AC50 (HeLa [22]): > 52 µM (inactive)

Structure (SMILES): CC(C)N1C[C@H](C)[C@@H](CN(C)C(=O)OC(C)(C)C)Oc2c(C(=O)Nc3ccncc3)cccc2C1=O
IC50 [24]: > 20 µM (inactive)

Structure (SMILES): CC(C)N1C[C@H](C)[C@@H](CN(C)Cc2ccc(Oc3ccccc3)cc2)Oc2c(cccc2-c2nnc(-c3ccncc3)o2)C1=O
AC50 [25]: 0.116 µM (active)

EC50 [26]: 1.45 µM (active)
Structure (SMILES): O=C1C(=O)N(CCOc2ccc(Br)cc2)c2ccc(OC(F)(F)F)cc21

Structure (SMILES): Cc1cc(C)c(S(=O)(=O)Nc2cc(SCC(=O)O)c(O)c3ccccc23)c(C)c1
CC50 [27]: 9.03 µM (active)

Structure (SMILES): CC(C)OC(=O)C(C(=O)C(F)(F)F)c1cc(NS(=O)(=O)c2ccccc2)c2ccccc2c1O (stereo not given)
AC50 [28]: 40.4 µM (active)

IC50 (Protein Wnt-3a [29]): > 21.8 µM (inactive)
Structure (SMILES): CCN(CC)c1cc(NC(=O)c2cccc(C#N)c2)ncn1

Structure (SMILES): COc1ccc2[nH]c3c(C)c4cc[n+](C)cc4c(C)c3c2c1
GI50 (P388/ADR): 55.8 µM (inactive)
IC50 [30]: 24.7 µM (active)
AC50 (HeLa [31]): 65.2 µM (active)
GI50 (SN12K1): 0.203 µM (active)
AC50 [32]: < 0.15 µM (active)
GI50 (P388): 0.773 µM (active)
CC50 [33]: 100 µM (active)
IC50 [34]: 9.55 µM (active)
IC50 [35]: > 66.6 µM (inactive)

Structure (SMILES): NCC(=O)c1ccccc1 [PHENACYLAMINE HYDROCHLORIDE]
EC50 (cells [36]): > 29.9 µM (inactive)
IC50 (cells [37]): > 29.9 µM (inactive)
AC50 (Cytochrome P450 3A4): 6.31 µM (inconclusive)
EC50 [38]: 1.08 µM (active)
IC50 [39]: 7.42 µM (active)
